Data: publication PMC2362735, “New semisynthetic vinca alkaloids: chemical, biochemical and cellular studies” (British Journal of Cancer, 1999)
pIC50: −log10 of the molar value. Where two headings read alike, the source gives them in different places.

What was measured:
[1] = system: Mouse leukaemia P388 cells; test: In vivo anti-tumour effect on P388 mouse leukaemia, single i.p. dose; details: for Dose (mg kg-1) giving the maximal effect: P388, single doses i.p.; for Maximal effect T/C (%): P388, single doses i.p. 24 h after transplantation, median survival treated/control x 100, six animals per group
Source text: (§1) The numerous antimitotic drugs already developed and therapeu- tically used for a large number of pathologies belong to different classes based on their chemical structure and other distinctive features. Antimitotic drugs usually target the tubulin/microtubule network of the cytoskeleton that is formed by assembly of cyto- plasmic tubulin dimers. The stability of the different microtubular structures varies considerably; some of their functions depend on their lability. The lability is augmented by the extreme sensitivity to various drugs. Several synthetic and natural compounds interact specifically with tubulin and/or microtubule, fundamentally destroying its dynamic character and leading to cell death. […] Because of their extensive clinical use, it is important to synthesize additional agents having at least the same biological activity. […] Nevertheless, it is unclear yet how the anti-calmodulin activity of these drugs is related to their desired and undesired pharmacological effects. […] The synthesis of the KAR derivatives are presented. […] Taxol, GTP and trifluoperazine were purchased from Sigma. All organic reagents for synthesis of the new compounds were obtained from Aldrich and were of the highest grade. All other chemicals were reagent grade commercial preparations. […] Tubulin was stored in 1 M sucrose, 10 mM sodium phosphate buffer, 0.5 mM magnesium chloride and 0.1 mM GTP, pH 7.0, at -80C and dialysed against the appropriate buffer before use. […] PFK, aldolase and glycerol-3-phosphate dehydrogenase- triosephosphate isomerase purified from rabbit skeletal muscle were purchased in ammonium sulphate suspensions from Sigma or Boehringer. The enzyme suspensions were centrifuged at 10 000g for 5 min. The pellets were suspended in the appropriate buffer, then the enzymes were gel filtered or dialysed in the same buffer to remove ammonium sulphate. […] (Figure 1B; R1 , CH3; R2 , CH2 CH2 Cl). […] After 2 h incubation at room temperature, 200 ml dried toluene was added to the reaction mixture. […] The mixture was stirred for 30 min. After separation of the organic phase, it was washed with water (3 x 30 ml) and dried with potassium sulphate and evaporated on a water bath of 35-40C at 20-27 hPa. The resulting material was chromatographed on silica gel (500 g, bead size of 0.040- 0.063 mm) column (30 mm x 500 mm) using ethyl acetate/ethanol (9:1) mixture as eluent. […] The mixture was kept for 4 h at room temperature and then evaporated on a water bath at 40C under a vacuum of 80 hPa to a final volume of 5-6 ml. […] (Figure 1B, R1 , CHO; R2 , CH2 CH2 Cl). […] Synthesis of KAR-4 [3-allyl-2,4-dioxo-3,5-spiro-oxazolidino- 4-deacetoxy-vinblastine] (Figure 1B; R1 , CH3; R2 , CH2 CH=CH2 ). […] NMR measurements were carried out on a Varian Unity plus-500 instrument (500 MHz for 1H and 125 MHz for 13C) in DMSO. Chemical shifts were determined relative to dTMS = 0.00 p.p.m. 1H and 13C signal assignments were verified by a concerted use of two-dimensional 1H-1H and 1H-13C shift correlation methods (DQFCOSY, HSQC, HMBC) and NOESY experiments. The gradient-enhanced DQFCOSY, HSQC, HMBC and NOESY experiments were recorded by using the standard spectrometer software package. A mixing time of tmix = 0.5 s was used for the NOESY experiments.

[2] = system: Mouse Ehrlich ascites tumour cells; test: In vivo anti-tumour effect on Ehrlich ascites carcinoma, single i.p. dose 4 days after transplantation
Source text: as §1

[3] = system: Human neuroblastoma cell line (SH-SY5Y); test: Microculture tetrazolium assay (MTA), cytotoxicity
Source text: as §1

tubulin = test: Taxol-induced tubulin polymerization, turbidity at 350 nm; assay type: biochemical, calf; details: taxol-induced assembly, MES buffer pH 6.8, 37C; average of three independent measurements; read-out: Anti-tubulin effect, turbidity at 350 nm, IC50
Source text: as §1

calmodulin = target: T1, calmodulin (Bos taurus, UniProt P62157); test: Anti-calmodulin activity assay: calmodulin-induced PFK inactivation; assay type: biochemical, bovine; details: drug 20 M; for Effect on calmodulin induced PFK inactivation: Activity (U mg-1): PFK 1.2 M protomers, calmodulin 3 M, 60 min, without calmodulin 66.6 U mg-1, with calmodulin 8.0 U mg-1; for Anti-calmodulin activity: Efficiency (%): calculated from the activity data (100% = PFK without calmodulin, 0% = PFK with calmodulin)
T1 construct: Calmodulin from bovine brain was purified to homogeneity using Phenyl-Sepharose (Pharmacia) chromatography; from tissue; host or cells: bovine brain
Source text: The numerous antimitotic drugs already developed and therapeu- tically used for a large number of pathologies belong to different classes based on their chemical structure and other distinctive features. Antimitotic drugs usually target the tubulin/microtubule network of the cytoskeleton that is formed by assembly of cyto- plasmic tubulin dimers. The stability of the different microtubular structures varies considerably; some of their functions depend on their lability. The lability is augmented by the extreme sensitivity to various drugs. Several synthetic and natural compounds interact specifically with tubulin and/or microtubule, fundamentally destroying its dynamic character and leading to cell death. […] Because of their extensive clinical use, it is important to synthesize additional agents having at least the same biological activity. […] Nevertheless, it is unclear yet how the anti-calmodulin activity of these drugs is related to their desired and undesired pharmacological effects. […] The synthesis of the KAR derivatives are presented. […] Taxol, GTP and trifluoperazine were purchased from Sigma. All organic reagents for synthesis of the new compounds were obtained from Aldrich and were of the highest grade. All other chemicals were reagent grade commercial preparations. […] Tubulin was stored in 1 M sucrose, 10 mM sodium phosphate buffer, 0.5 mM magnesium chloride and 0.1 mM GTP, pH 7.0, at -80C and dialysed against the appropriate buffer before use. […] PFK, aldolase and glycerol-3-phosphate dehydrogenase- triosephosphate isomerase purified from rabbit skeletal muscle were purchased in ammonium sulphate suspensions from Sigma or Boehringer. The enzyme suspensions were centrifuged at 10 000g for 5 min. The pellets were suspended in the appropriate buffer, then the enzymes were gel filtered or dialysed in the same buffer to remove ammonium sulphate. […] (Figure 1B; R1 , CH3; R2 , CH2 CH2 Cl). […] After 2 h incubation at room temperature, 200 ml dried toluene was added to the reaction mixture. […] The mixture was stirred for 30 min. After separation of the organic phase, it was washed with water (3 x 30 ml) and dried with potassium sulphate and evaporated on a water bath of 35-40C at 20-27 hPa. The resulting material was chromatographed on silica gel (500 g, bead size of 0.040- 0.063 mm) column (30 mm x 500 mm) using ethyl acetate/ethanol (9:1) mixture as eluent. […] The mixture was kept for 4 h at room temperature and then evaporated on a water bath at 40C under a vacuum of 80 hPa to a final volume of 5-6 ml. […] (Figure 1B, R1 , CHO; R2 , CH2 CH2 Cl). […] Synthesis of KAR-4 [3-allyl-2,4-dioxo-3,5-spiro-oxazolidino- 4-deacetoxy-vinblastine] (Figure 1B; R1 , CH3; R2 , CH2 CH=CH2 ). […] NMR measurements were carried out on a Varian Unity plus-500 instrument (500 MHz for 1H and 125 MHz for 13C) in DMSO. Chemical shifts were determined relative to dTMS = 0.00 p.p.m. 1H and 13C signal assignments were verified by a concerted use of two-dimensional 1H-1H and 1H-13C shift correlation methods (DQFCOSY, HSQC, HMBC) and NOESY experiments. The gradient-enhanced DQFCOSY, HSQC, HMBC and NOESY experiments were recorded by using the standard spectrometer software package. A mixing time of tmix = 0.5 s was used for the NOESY experiments. […] Mass spectrum was recorded on a Kratos MS 80 instrument using FAB.

[4] = system: Mouse leukaemia P388 cells; set-up: method as in Orosz et al (1997a); details: P388, single doses i.p.; data published also in ref Orosz et al (1997a); cited from earlier work
[5] = target: Phosphofructokinase [ATP: D-fructose 6-phosphate 1-phospho-transferase, EC 2.7.1.11] from rabbit skeletal muscle (rabbit) (UniProt P00511)
Sequence of Phosphofructokinase [ATP: D-fructose 6-phosphate 1-phospho-transferase, EC 2.7.1.11] from rabbit skeletal muscle (rabbit) (P00511 whole entry): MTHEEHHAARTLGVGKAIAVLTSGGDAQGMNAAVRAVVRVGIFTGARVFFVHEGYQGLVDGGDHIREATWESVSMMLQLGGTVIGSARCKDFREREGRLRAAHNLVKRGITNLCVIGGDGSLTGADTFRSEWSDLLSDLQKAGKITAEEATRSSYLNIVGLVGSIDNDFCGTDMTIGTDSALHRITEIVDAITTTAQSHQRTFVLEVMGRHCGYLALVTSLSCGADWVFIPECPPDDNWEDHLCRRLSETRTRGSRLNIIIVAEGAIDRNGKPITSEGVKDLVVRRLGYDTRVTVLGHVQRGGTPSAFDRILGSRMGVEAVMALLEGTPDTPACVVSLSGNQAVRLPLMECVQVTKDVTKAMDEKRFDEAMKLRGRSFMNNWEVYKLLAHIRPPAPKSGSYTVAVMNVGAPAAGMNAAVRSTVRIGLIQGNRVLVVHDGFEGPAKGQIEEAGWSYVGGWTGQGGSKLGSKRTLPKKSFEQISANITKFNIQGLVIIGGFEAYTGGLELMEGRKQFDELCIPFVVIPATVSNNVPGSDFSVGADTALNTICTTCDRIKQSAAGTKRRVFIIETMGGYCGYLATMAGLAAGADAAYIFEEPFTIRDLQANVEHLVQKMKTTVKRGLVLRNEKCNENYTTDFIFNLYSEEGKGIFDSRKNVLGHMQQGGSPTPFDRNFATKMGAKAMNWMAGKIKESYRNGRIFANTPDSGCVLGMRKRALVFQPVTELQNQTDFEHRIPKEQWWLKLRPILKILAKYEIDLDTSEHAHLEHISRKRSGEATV

[6] = Table 2A, 40 mg kg-1 single dose i.p.
[7] = Table 2A, 40 mg kg-1 single dose i.p., sacrifice 8 days after implantation, control 5.33 ml
[8] = read-out: Cytotoxicity MTA IC50, 4-day treatment, MTT
[9] = Table 2B, 2 mg kg-1 single dose i.p.
[10] = Table 2B, 5 mg kg-1 single dose i.p.
[11] = Table 2B, 10 mg kg-1 single dose i.p.

CCC1(O)CC2CN(CCc3c([nH]c4ccccc34)C(C(=O)OC)(c3cc4c(cc3OC)N(C=O)C3C5(CC6(CC)C=CCN7CCC43C76)OC(=O)N(CCCl)C5=O)C2)C1 (centres unmarked) [KAR-3, 3-(-chloroethyl)-2,4-dioxo-3,5-spiro-oxazolidino-4-deacetoxy-vincristine]
Dose (mg kg-1) giving the maximal effect [1]: 20 mg/kg | Maximal effect T/C (%) [1]: 187% | Cells ml-1 (per cent of control) [2, 6]: 57 per cent of control | Total cells (per cent of control) [2, 6]: 32 per cent of control | Volume of tumour per mouse [2, 7]: 3.00 mL | pIC50 [3, 8]: 6.51 | pIC50 (tubulin): 6.87 | Effect on calmodulin induced PFK inactivation: Activity (U mg-1) (calmodulin): 34.4 U mg-1 | anti-calmodulin activity in the PFK assay (in words) (calmodulin): significant anti-calmodulin potency | reduction of the calmodulin-mediated inactivation of PFK (calmodulin): about 50% | Anti-calmodulin activity: Efficiency (%) (calmodulin): 45%

C=CCN1C(=O)O[C@@]2(C[C@]3(CC)C=CCN4CC[C@@]5(c6cc([C@@]7(C(=O)OC)C[C@@H]8CN(CCc9c7[nH]c7ccccc97)C[C@](O)(CC)C8)c(OC)cc6N(C)[C@H]52)[C@@H]43)C1=O [KAR-4, 3-allyl-2,4-dioxo-3,5-spiro-oxazolidino-4-deacetoxy-vinblastine]
Dose (mg kg-1) giving the maximal effect [1]: 40 mg/kg | Maximal effect T/C (%) [1]: 214% | Cells ml-1 (per cent of control) [2, 6]: 90 per cent of control | Total cells (per cent of control) [2, 6]: 57 per cent of control | Volume of tumour per mouse [2, 7]: 3.33 mL | pIC50 [3, 8]: 6.46 | pIC50 (tubulin): 6.73 | Effect on calmodulin induced PFK inactivation: Activity (U mg-1) (calmodulin): 10.9 U mg-1 | anti-calmodulin activity in the PFK assay (in words) (calmodulin): does not display anti-calmodulin activity | Anti-calmodulin activity: Efficiency (%) (calmodulin): 5%

CC[C@]1(O)C[C@H]2CN(CCc3c([nH]c4ccccc34)[C@@](C(=O)OC)(c3cc4c(cc3OC)N(C=O)[C@H]3[C@@](O)(C(=O)OC)[C@H](OC(C)=O)[C@]5(CC)C=CCN6CC[C@]43[C@@H]65)C2)C1 [Vincristine, vincristine, reference compound]
mortality of treated animals ([2]; 15 mg kg-1 (highest dose) single dose i.p., three mice per group): death of two of the three treated animals | Total cells (per cent of control) ([2]; Table 2B, 1 mg kg-1 single dose i.p.): 57 per cent of control | Volume of tumour per mouse ([2]; Table 2B, 1 mg kg-1 single dose i.p., control 2.67 ml): 2.00 mL | Cells ml-1 (per cent of control) [2, 9]: 106 per cent of control | Total cells (per cent of control) [2, 9]: 60 per cent of control | Volume of tumour per mouse ([2]; Table 2B, 2 mg kg-1 single dose i.p., control 2.67 ml): 1.50 mL | Cells ml-1 (per cent of control) [2, 10]: 225 per cent of control | Total cells (per cent of control) [2, 10]: 54 per cent of control | Volume of tumour per mouse ([2]; Table 2B, 5 mg kg-1 single dose i.p., control 2.67 ml): 0.64 mL | Cells ml-1 (per cent of control) [2, 11]: 224 per cent of control | Total cells (per cent of control) [2, 11]: 45 per cent of control | Volume of tumour per mouse ([2]; Table 2B, 10 mg kg-1 single dose i.p., control 2.67 ml): 0.53 mL | maximum dose that did not result in the death of the animals ([2]; single dose i.p., Ehrlich ascites mice): 10 mg/kg | pIC50 ([3]; Homo sapiens, 96 h, read-out: Cytotoxicity MTA IC50): 7.89 | IC50 ([3]; Homo sapiens, 96 h, read-out: Cytotoxicity MTA IC50 (M)): 1.3e-08 M | pIC50 (tubulin): 6.54 | Dose (mg kg-1) giving the maximal effect [4]: 1 mg/kg

Calmodulin from bovine brain (from UniProt P62157 1-149) (natural protein)
PFK activity after 60 min incubation with calmodulin and KAR-2 (calmodulin induced PFK inactivation) [5]: 11.1 U mg-1 | PFK activity after 60 min incubation with calmodulin and KAR-3 (calmodulin induced PFK inactivation) [5]: 34.4 U mg-1 | PFK activity after 60 min incubation with calmodulin and KAR-4 (calmodulin induced PFK inactivation) [5]: 10.9 U mg-1 | PFK activity after 60 min incubation with calmodulin and trifluoperazine (calmodulin induced PFK inactivation) [5]: 46.1 U mg-1 | efficiency of KAR-2 in suspending the calmodulin induced PFK inactivation [5]: 5% | efficiency of KAR-3 in suspending the calmodulin induced PFK inactivation [5]: 45% | efficiency of KAR-4 in suspending the calmodulin induced PFK inactivation [5]: 5% | efficiency of trifluoperazine in suspending the calmodulin induced PFK inactivation [5]: 65% | residual PFK activity after 60 min incubation with calmodulin, no drug (66.6 U mg-1 without calmodulin) [5]: 8 U mg-1
